{"source": "paper PMC6692352", "about": "“DF2726A, a new IL-8 signalling inhibitor, is able to counteract chemotherapy-induced neuropathic pain” (Scientific Reports, 2019)", "system": "acetylated α-tubulin", "assay": "Acetylated α-tubulin immunofluorescence of nerve fibres in paw sections of oxaliplatin rats", "format": "in vivo, male Wistar rats", "conditions": "30 mg/kg os, rat paw sections", "procedure": "Animals were sacrificed and a biopsy (3 mm) was taken from pad of the right hind paw. Biopsies were immediately placed in Zamboni’s fixative, where they were left at 4 °C. Tissues were then transferred to 20% sucrose for at least 24 h and used for immunohistochemistry analysis. Specimens were frozen in Optimal Cutting Temperature compound (OCT, Sakura Finetek Inc, CA, USA) and sliced into 20 μm thick serial coronal sections by cryostat AMES LAB-TEK (Westmont, Illinois, USA).\nIn brief, sections were blocked with phosphate buffer saline (PBS) containing 10% (Bovine Serum Albumin) and 0.3% Tween-20, for 1 h at RT and incubated, overnight at 4 °C, with the primary antibodies: IL-8 (mouse, 1:25, R&D Systems Inc. Minneapolis, MN, USA), PGP9.5 (rabbit, 1:1000, AbD Serotec, NC, USA), acetylated alpha tubulin (mouse, 1:250, Abcam Cambridge, MA, USA) and collagen IV (goat, 1:25, Southern Biotech, Birmingham, AL, USA). Sections were then rinsed in PBS several times before incubation for 2 h at RT with secondary antibodies, donkey AlexaFluor 488 anti-rabbit or donkey AlexaFluor 633 (1:2000), goat anti-mouse conjugated with Alexafluor 488 (1:2000; Life Technologies, Camarillo, CA, USA). […]", "data": [{"smiles": "CC(C)(C(=O)O)c1ccc(Nc2nc(C(F)(F)F)cs2)cc1", "note": "[DF2726A]", "values": [{"measurement": "Acetylated α-tubulin levels in nerve fibres of oxaliplatin rats", "result": "completely restored control conditions"}]}]}
